Assay [1] addresses S1P1 (Homo sapiens (Human), UniProt P21453). In words: 35S-GTPγS binding assay, S1P1 membranes. The class given is biochemical. The settings on record: membranes from CHO cells expressing S1P1; read-out: S1P1 GTPyS EC50. As for the experimental part: Membranes were prepared from CHO cells expressing S1P1 or S1P3 for use in ligand and […] binding studies. Cells were suspended in 50 mM TRIS, pH 7.4, 2 mM EDTA, 250 mM Sucrose (buffer A) and 1× Complete protease inhibitor cocktail (Roche), and disrupted at 4° C. by nitrogen decompression using a cell disruption bomb (Parr Instrument). Following centrifugation at 1000 RPM for 10 min at 4° C., the supernatant was suspended in buffer A and centrifuged again at 19000 RPM for 60 min at 4° C. The pellet was then suspended in 10 mM HEPES, pH 7.4, 1 mM EDTA, 250 mM Sucrose (Buffer B), and 1× Complete EDTA-free protease inhibitor cocktail and homogenized using a potter. Membranes were flash frozen in liquid nitrogen and stored at −80° C. [33P]sphingosine 1-phosphate (3000 Ci/mmol; American Radiolabeled Chemicals, Inc.) was added to test compounds in DMSO. […] Binding was performed for 60 min at room temperature on a shaker and bound radioactivity was measured on a PerkinElmer 1450 MicroBeta counter. Specific binding was calculated by subtracting remaining radioactivity in the presence of 1000-fold excess of unlabeled S1P. Binding data were analyzed using the GraphPad Prism program.
(§1) The assay was initiated with the addition of 20 μl of 1.5 nM [35S]-GTPγS (1100 Ci/mmol; GE Healthcare) in assay buffer. After 60 min incubation at 30° C. on a shaker, plates were centrifuged for 10 min at 2000 RPM. Supernatant was discarded and membrane bound radioactivity was measured on a PerkinElmer 1450 MicroBeta counter. Triplicate samples were averaged and expressed as % response relative to SIP activation in absence of compound (n=2).
A general note: Binding of GTPγS marks nucleotide exchange on a G protein.

The target of assay [2] is S1P3 (Homo sapiens (Human), UniProt Q99500). In words: 35S-GTPγS binding assay, S1P3 membranes. The class given is biochemical. Conditions: membranes from CHO cells expressing S1P3; read-out: S1P3 GTPyS EC50. The protocol: Membranes were prepared from CHO cells expressing S1P1 or S1P3 for use in ligand and […] binding studies. Cells were suspended in 50 mM TRIS, pH 7.4, 2 mM EDTA, 250 mM Sucrose (buffer A) and 1× Complete protease inhibitor cocktail (Roche), and disrupted at 4° C. by nitrogen decompression using a cell disruption bomb (Parr Instrument). Following centrifugation at 1000 RPM for 10 min at 4° C., the supernatant was suspended in buffer A and centrifuged again at 19000 RPM for 60 min at 4° C. The pellet was then suspended in 10 mM HEPES, pH 7.4, 1 mM EDTA, 250 mM Sucrose (Buffer B), and 1× Complete EDTA-free protease inhibitor cocktail and homogenized using a potter. Membranes were flash frozen in liquid nitrogen and stored at −80° C. [33P]sphingosine 1-phosphate (3000 Ci/mmol; American Radiolabeled Chemicals, Inc.) was added to test compounds in DMSO. Membranes and WGA SPA beads (GE Healthcare) were added to give a final volume of 100 μl in 96-well plates with assay concentrations of […] [33P]sphingosine 1-phosphate (respectively for S1P1 or S1P3), 50 mM HEPES, pH 7.5, 5 mM MgCl2, 100 mM NaCl, 0.4% fatty acid-free BSA, 1-5 μg/well of proteins and 100 μg/well of WGA SPA beads. Binding was performed for 60 min at room temperature on a shaker and bound radioactivity was measured on a PerkinElmer 1450 MicroBeta counter. Specific binding was calculated by subtracting remaining radioactivity in the presence of 1000-fold excess of unlabeled S1P. Binding data were analyzed using the GraphPad Prism program.
as §1, with “Measurements of ^35S-GTPγS Binding: Membranes (1 to 10 μg protein) prepared as described above, were incubated in 96-well Scintiplates (PerkinElmer) with test compounds diluted in DMSO, in 180 μl of 20 mM HEPES, pH 7.4, 10 mM MgCl2, 2 μg/well Saponin, 0.2% fatty acid free BSA (Assay buffer), 140 mM NaCl and 1.7 μM GDP. The” for “The”

This passage reports EC50 results from patent US9150519B2, “6-amino-pyrimidine-4-carboxamide derivatives and related compounds which bind to the sphingosine 1-phosphate (S1P) receptor for the treatment of multiple sclerosis” (MERCK SERONO SA, priority 2007, dated 2015).

Bounds are passed on as bounds.

Chain of S1P1 (P21453 whole entry, species assumed): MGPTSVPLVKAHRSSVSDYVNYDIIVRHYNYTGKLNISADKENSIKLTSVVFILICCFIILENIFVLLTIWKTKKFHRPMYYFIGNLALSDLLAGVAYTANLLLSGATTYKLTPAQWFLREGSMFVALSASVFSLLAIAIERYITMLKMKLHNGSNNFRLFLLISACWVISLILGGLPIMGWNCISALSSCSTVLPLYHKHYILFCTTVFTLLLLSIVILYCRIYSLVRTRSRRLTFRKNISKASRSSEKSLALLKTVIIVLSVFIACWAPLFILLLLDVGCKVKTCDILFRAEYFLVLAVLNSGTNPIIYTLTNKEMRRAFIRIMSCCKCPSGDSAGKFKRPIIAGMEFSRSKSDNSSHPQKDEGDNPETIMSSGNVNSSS
Chain of S1P3 (Q99500 whole entry, species assumed): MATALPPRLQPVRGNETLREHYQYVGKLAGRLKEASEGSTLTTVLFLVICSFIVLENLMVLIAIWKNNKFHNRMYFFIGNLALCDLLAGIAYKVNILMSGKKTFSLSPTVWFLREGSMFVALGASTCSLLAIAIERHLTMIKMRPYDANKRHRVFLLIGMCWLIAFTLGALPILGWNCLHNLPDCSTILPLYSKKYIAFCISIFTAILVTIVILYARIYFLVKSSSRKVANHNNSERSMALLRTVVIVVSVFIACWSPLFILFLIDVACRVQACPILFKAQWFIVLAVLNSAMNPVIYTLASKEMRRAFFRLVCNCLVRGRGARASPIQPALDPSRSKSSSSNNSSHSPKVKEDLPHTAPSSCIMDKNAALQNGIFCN

As a reminder, the EC50 is the concentration giving half of the maximal effect. `O=C(Nc1ccc2[nH]ncc2c1)c1cc(N(CC2CC2)C2CCCCC2)ncn1` [Example 1-44]: the 50% effective concentration (EC50) is 0.009 µM in assay [1] and more than 20 µM in assay [2].
For the compound `CCCN(CC1CC1)c1cc(C(=O)Nc2ccc3[nH]ncc3c2)ncn1` [Example 1-45], the EC50 was 0.013 µM in assay [1] and 0.416 µM in assay [2].
For `O=C(Nc1ccnc2ccccc12)c1cc(N(CC2CC2)C2CCCCC2)ncn1` [Example 1-46], the EC50 in assay [1] worked out at 0.019 µM; in assay [2] it was 1.16 µM.
Take `Cc1cc2[nH]ncc2cc1NC(=O)c1cc(N(CC2CC2)C2CCCCC2)ncn1` [Example 1-47]: the EC50 in assay [1] stood at 0.006 µM; in assay [2] it was 3.27 µM.
Regarding `CCCN(c1cc(C(=O)Nc2ccc(S(N)(=O)=O)cc2C)ncn1)C1CCCCC1` [Example 1-54], the values for the EC50 in assay [1] and in assay [2] were 0.0029 µM and 1.99 µM, respectively.
Regarding `CCCN(CCC)c1cc(C(=O)Nc2ccc(S(N)(=O)=O)cc2C)ncn1` [Example 1-57], the EC50 in assay [1] was 0.036 µM; in assay [2], more than 20 µM.
With `Cc1cc(S(N)(=O)=O)ccc1NC(=O)c1cc(N(CC(C)C)C2CCCC2)ncn1` [Example 1-58], the EC50 in assay [1] is 0.039 µM; in assay [2] it was more than 20 µM.
With `CCCN(c1cc(C(=O)Nc2ccc(S(N)(=O)=O)cc2C)ncn1)C(C)C` [Example 1-60], the EC50 in assay [1] was 0.051 µM; in assay [2], more than 20 µM.
On to `Cc1cc(S(=O)(=O)NCC(=O)O)ccc1NC(=O)c1cc(N(CC2CC2)C2CCCCC2)ncn1` [Example 1-61], for which the EC50 turned out to be 0.012 µM in assay [1] and 0.259 µM in assay [2].
In the case of `CCCN(CC1CC1)c1cc(C(=O)Nc2cc3cn[nH]c3cc2C)ncn1` [Example 1-71], the EC50 in assay [1] is 0.012 µM; in assay [2], more than 20 µM.
Consider `COC(=O)CCNCc1ccc(NC(=O)c2cc(N(CC3CC3)C3CCCCC3)ncn2)cc1` [Example 1-76], for which the EC50 turned out to be 0.048 µM in assay [1] and 0.777 µM in assay [2].
In the case of `CNS(=O)(=O)c1ccc(NC(=O)c2cc(N(CC3CC3)C3CCCCC3)ncn2)c(C)c1` [Example 1-105], the EC50 in assay [1] turned out to be 0.0058 µM; in assay [2], 2.47 µM.
Consider `COCCNS(=O)(=O)c1ccc(NC(=O)c2cc(N(CC3CC3)C3CCCCC3)ncn2)c(C)c1` [Example 1-107], for which the EC50 in assay [1] stood at 0.019 µM; in assay [2], 3.3 µM.
For `CCCN(CC1CC1)c1cc(C(=O)Nc2ccc(S(=O)(=O)NC)cc2C)ncn1` [Example 1-109], the values for the EC50 in assay [1] and in assay [2] were 0.063 µM and more than 20 µM, respectively.
`O=C(Nc1cccc2[nH]ccc12)c1cc(N(CC2CC2)C2CCCCC2)ncn1` [Example 1-126]: the EC50 in assay [1] is 0.006 µM; in assay [2], more than 20 µM.
As for `O=C(Nc1cccc2[nH]ncc12)c1cc(N(CC2CC2)C2CCCCC2)ncn1` [Example 1-127], the values for the concentration giving a half-maximal response (EC50) in assay [1] and in assay [2] were 0.048 µM and more than 20 µM, respectively.
For `O=C(O)CCCS(=O)(=O)c1ccc(NC(=O)c2cc(N(CC3CC3)C3CCCCC3)ncn2)cc1` [Example 1-132] the same measures were 0.04 µM and 0.085 µM.
